Assay results reported in patent US10150764B2, “Substituted benzene compounds” (Epizyme, Inc., priority 2013, dated 2018).

How the values were obtained:
[1] = system: H3K27me3 in WSU-DLCL2 cells; assay: WSU-DLCL2 methylation assay (H3K27me3 ELISA); assay type: cell-based, human; details: H3K27me3 normalised to total H3
Text: WSU-DLCL2 Methylation Assay
WSU-DLCL2 suspension cells were purchased from DSMZ (German Collection of Microorganisms and Cell Cultures, Braunschweig, Germany). RPMI/Glutamax Medium, Penicillin-Streptomycin, Heat Inactivated Fetal Bovine Serum, and D-PBS were purchased from Life Technologies, Grand Island, N.Y., USA. Extraction Buffer and Neutralization Buffer (5×) were purchased from Active Motif, Carlsbad, Calif., USA. Rabbit anti-Histone H3 antibody was purchased from Abcam, Cambridge, Mass., USA. Rabbit anti-H3K27me3 and HRP-conjugated anti-rabbit-IgG were purchased from Cell Signaling Technology, Danvers, Mass., USA. TMB “Super Sensitive” substrate was sourced from BioFX Laboratories, Owings Mills, Md., USA. IgG-free Bovine Serum Albumin was purchased from Jackson ImmunoResearch, West Grove, Pa., USA. PBS with Tween (10×PBST) was purchased from KPL, Gaithersburg, Md., USA. Sulfuric Acid was purchased from Ricca Chemical, Arlington, Tex., USA. Immulon ELISA plates were purchased from Thermo, Rochester, N.Y., USA. V-bottom cell culture plates were purchased from Corning Inc., Corning, N.Y., USA. V-bottom polypropylene plates were purchased from Greiner Bio-One, Monroe, N.C., USA.
WSU-DLCL2 suspension cells were maintained in growth medium (RPMI 1640 supplemented with 10% v/v heat inactivated fetal bovine serum and 100 units/mL penicillin-streptomycin) and cultured at 37° C. under 5% CO2. Under assay conditions, cells were incubated in Assay Medium (RPMI 1640 supplemented with 20% v/v heat inactivated fetal bovine serum and 100 units/mL penicillin-streptomycin) at 37° C. under 5% CO2 on a plate shaker.
WSU-DLCL2 cells were seeded in assay medium at a concentration of 50,000 cells per mL to a 96-well V-bottom cell culture plate with 200 μL per well. […] Plates were incubated on a titer-plate shaker at 37° C., 5% CO2 for 96 hours. After four days of incubation, plates were spun at 241×g for five minutes and medium was aspirated gently from each well of cell plate without disturbing cell pellet. Pellet was resuspended in: 200 μL DPBS and plates were spun again at 241×g for five minutes. The supernatant was aspirated and cold (4° C.) Extraction buffer (100 μL) was added per well. Plates were incubated at 4° C. on orbital shaker for two hours. Plates were spun at 3427×g×10 minutes. Supernatant (80 μL per well) was transferred to its respective well in 96 well V-bottom polypropylene plate. Neutralization Buffer 5× (20 μL per well) was added to V-bottom polypropylene plate containing supernatant. V-bottom polypropylene plates containing crude histone preparation (CHP) were incubated on orbital shaker×five minutes. Crude Histone Preparations were added (2 μL per well) to each respective well into duplicate 96 well ELISA plates containing 100 μL Coating Buffer (1×PBS+BSA 0.05% w/v). Plates were sealed and incubated overnight at 4° C. The following day, plates were washed three times with 300 μL per well 1×PBST. […] For H3K27me3 detection, 100 μL of HRP conjugated anti-rabbit IgG antibody diluted to 1:4000 in ELISA diluent was added per well. Plates were incubated at room temperature for 90 minutes. […] TMB substrate 100 μL was added per well. Histone H3 plates were incubated for five minutes at room temperature. H3K27me3 plates were incubated for 10 minutes at room temperature. The reaction was stopped with sulfuric acid 1N (100 μL per well). Absorbance for each plate was read at 450 nm.
Each plate included eight control wells DMSO only treatment (Minimum Inhibition) as well as eight control wells for maximum inhibition (Background wells).
The average of the ratio values for each control type was calculated and used to determine the percent inhibition for each test well in the plate. Test compound was serially diluted three-fold in DMSO for a total of ten test concentrations, beginning at 25 μM.

[2] = molecular target: EZH2 Y641F mutant (PRC2 enzyme) (Homo sapiens (Human), UniProt Q15910, Y641F); assay: PRC2 enzyme assay on peptide substrate, EZH2 Y641F mutant (H3K27me2 peptide, 3H-SAM Flashplate); assay type: biochemical; details: Y641F mutant PRC2 4 nM
EZH2 Y641F mutant (PRC2 enzyme), sequence (Q15910 whole entry Y641F): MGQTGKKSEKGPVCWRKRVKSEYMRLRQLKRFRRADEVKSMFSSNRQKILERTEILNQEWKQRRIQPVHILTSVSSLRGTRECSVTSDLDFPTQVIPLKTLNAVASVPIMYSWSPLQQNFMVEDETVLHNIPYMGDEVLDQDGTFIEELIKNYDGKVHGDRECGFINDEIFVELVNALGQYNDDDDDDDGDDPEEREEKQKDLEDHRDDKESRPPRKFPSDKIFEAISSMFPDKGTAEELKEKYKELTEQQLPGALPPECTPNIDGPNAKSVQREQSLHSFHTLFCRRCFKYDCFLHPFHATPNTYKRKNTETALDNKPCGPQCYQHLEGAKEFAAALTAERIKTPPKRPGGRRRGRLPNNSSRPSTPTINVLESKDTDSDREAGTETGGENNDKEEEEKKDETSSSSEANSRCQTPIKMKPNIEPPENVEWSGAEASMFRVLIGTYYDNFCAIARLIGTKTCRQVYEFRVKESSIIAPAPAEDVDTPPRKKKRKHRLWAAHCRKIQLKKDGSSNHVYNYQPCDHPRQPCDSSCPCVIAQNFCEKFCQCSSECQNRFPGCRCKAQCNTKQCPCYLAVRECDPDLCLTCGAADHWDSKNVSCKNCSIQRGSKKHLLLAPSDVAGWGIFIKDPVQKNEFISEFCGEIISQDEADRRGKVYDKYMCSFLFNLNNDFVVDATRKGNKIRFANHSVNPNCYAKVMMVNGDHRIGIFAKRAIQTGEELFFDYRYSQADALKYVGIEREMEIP
EZH2 Y641F mutant (PRC2 enzyme), sequence (O75530 whole entry partner): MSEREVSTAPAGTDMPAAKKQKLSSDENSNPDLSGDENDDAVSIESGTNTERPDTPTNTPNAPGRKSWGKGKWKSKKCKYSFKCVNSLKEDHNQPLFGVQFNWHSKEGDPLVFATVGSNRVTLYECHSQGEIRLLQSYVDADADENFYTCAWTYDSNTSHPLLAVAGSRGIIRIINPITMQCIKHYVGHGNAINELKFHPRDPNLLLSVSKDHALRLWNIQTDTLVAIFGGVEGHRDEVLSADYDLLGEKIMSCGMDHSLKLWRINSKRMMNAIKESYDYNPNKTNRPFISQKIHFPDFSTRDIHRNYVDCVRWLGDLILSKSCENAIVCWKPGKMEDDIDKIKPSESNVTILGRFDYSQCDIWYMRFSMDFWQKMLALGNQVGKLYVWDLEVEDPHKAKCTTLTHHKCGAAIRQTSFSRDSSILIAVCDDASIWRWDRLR
EZH2 Y641F mutant (PRC2 enzyme), sequence (Q15022 whole entry partner): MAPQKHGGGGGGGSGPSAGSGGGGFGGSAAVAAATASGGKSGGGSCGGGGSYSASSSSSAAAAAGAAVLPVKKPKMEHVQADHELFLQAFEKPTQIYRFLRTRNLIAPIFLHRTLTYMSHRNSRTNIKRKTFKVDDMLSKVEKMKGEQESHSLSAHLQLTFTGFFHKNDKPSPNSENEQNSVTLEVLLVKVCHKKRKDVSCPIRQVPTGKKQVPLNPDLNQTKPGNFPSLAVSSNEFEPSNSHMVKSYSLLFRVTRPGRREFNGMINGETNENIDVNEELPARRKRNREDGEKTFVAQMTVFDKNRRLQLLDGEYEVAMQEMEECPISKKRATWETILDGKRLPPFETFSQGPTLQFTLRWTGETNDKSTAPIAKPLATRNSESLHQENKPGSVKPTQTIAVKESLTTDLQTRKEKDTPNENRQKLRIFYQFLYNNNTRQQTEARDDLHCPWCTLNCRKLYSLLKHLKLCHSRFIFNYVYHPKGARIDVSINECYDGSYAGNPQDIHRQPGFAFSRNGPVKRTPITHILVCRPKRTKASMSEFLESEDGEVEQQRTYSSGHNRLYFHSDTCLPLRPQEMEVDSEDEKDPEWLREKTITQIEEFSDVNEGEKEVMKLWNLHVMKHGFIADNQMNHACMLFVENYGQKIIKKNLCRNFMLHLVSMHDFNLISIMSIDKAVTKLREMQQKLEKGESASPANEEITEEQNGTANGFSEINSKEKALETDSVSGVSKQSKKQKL
EZH2 Y641F mutant (PRC2 enzyme), sequence (Q09028 whole entry partner): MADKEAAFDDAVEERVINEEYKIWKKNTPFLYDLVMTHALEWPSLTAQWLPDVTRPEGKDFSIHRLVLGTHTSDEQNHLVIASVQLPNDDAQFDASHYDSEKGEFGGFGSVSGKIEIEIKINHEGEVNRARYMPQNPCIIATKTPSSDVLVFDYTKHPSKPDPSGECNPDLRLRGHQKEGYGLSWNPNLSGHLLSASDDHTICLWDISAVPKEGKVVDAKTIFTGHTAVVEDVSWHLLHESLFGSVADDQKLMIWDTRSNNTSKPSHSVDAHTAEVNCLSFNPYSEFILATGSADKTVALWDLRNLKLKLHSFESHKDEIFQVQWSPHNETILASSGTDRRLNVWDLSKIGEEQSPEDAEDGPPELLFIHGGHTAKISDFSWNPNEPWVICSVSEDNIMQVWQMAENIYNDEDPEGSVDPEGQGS

[3] = molecular target: wild-type EZH2 (PRC2 enzyme) (Homo sapiens (Human), UniProt Q15910); assay: PRC2 enzyme assay on peptide substrate, wild-type EZH2 (H3K27me0 peptide, 3H-SAM Flashplate); assay type: biochemical; details: wild-type PRC2 4 nM, read-out: WT EZH2 IC50
wild-type EZH2 (PRC2 enzyme), sequence (Q15910 whole entry): as the sequence (Q15910 whole entry Y641F) above, with F641Y counted along it
wild-type EZH2 (PRC2 enzyme), sequence (O75530 whole entry partner): as the sequence (O75530 whole entry partner) above
wild-type EZH2 (PRC2 enzyme), sequence (Q15022 whole entry partner): as the sequence (Q15022 whole entry partner) above
wild-type EZH2 (PRC2 enzyme), sequence (Q09028 whole entry partner): as the sequence (Q09028 whole entry partner) above
Experimental: Human PRC2 enzymes were purified as 4-component enzyme complexes co-expressed in Spodoptera frugiperda (sf9) cells using a baculovirus expression system. […] The EED subunit contained an N-terminal FLAG tag that was used to purify the entire 4-component complex from sf9 cell lysates.
The assays were all performed in a buffer consisting of 20 mM bicine (pH=7.6), 0.5 mM DTT, 0.005% BSG and 0.002% Tween20, prepared on the day of use. […] DMSO (1 μL) was added to columns 11, 12, 23, 24, rows A-H for the maximum signal control, and SAH, a known product and inhibitor of PRC2 (1 μL) was added to columns 11, 12, 23, 24, rows I-P for the minimum signal control. A cocktail (40 μL) containing the wild-type PRC2 enzyme and H3K27me0 peptide or any of the Y641 mutant enzymes and H3K27me2 peptide was added by Multidrop Combi (Thermo). The compounds were allowed to incubate with PRC2 for 30 min at 25° C., then a cocktail (10 μL) containing a mixture of non-radioactive and ^3H-SAM was added to initiate the reaction (final volume=51 μL). […] The assays were stopped by the addition of non-radioactive SAM (10 μL) to a final concentration of 600 μM, which dilutes the ^3H-SAM to a level where its incorporation into the peptide substrate is no longer detectable. 50 of the reaction in the 384-well polypropylene plate was then transferred to a 384-well Flashplate and the biotinylated peptides were allowed to bind to the streptavidin surface for at least 1 h before being washed three times with 0.1% Tween20 in a Biotek ELx405 plate washer. The plates were then read in a PerkinElmer TopCount platereader to measure the quantity of ^3H-labeled peptide bound to the Flashplate surface, measured as disintegrations per minute (dpm) or alternatively, referred to as counts per minute (cpm).

[4] = Homo sapiens, WSUDLCL2, 96 hours incubation

Row | IC50 [2] [µM] | IC50 [3] [µM] | Compound | IC50 ([1]; 96 hours incubation) [µM] | IC50 [1, 4] [µM]
1 | 0.418 | 0.695 | CCN(c1cc(Cl)cc(C(=O)NCc2c(C)n(C)[nH]c2=O)c1C)[C@H]1CC[C@H](N(C)CCOC)CC1 [Compound 55, 5-chloro-N-((1,5-dimethyl-3-oxo-2,3-dihydro-1H-pyrazol-4-yl)methyl)-3-(ethyl((trans)-4-((2-methoxyethyl)(methyl)amino)cyclohexyl)amino)-2-methylbenzamide] |  | 30.6
2 | 49.4 | > 50 | CCN(c1cc(Cl)cc(C(=O)NCc2c(OC)nn(C)c2N2CCCC2)c1C)[C@H]1CC[C@H](N(C)C)CC1 [Compound 80, 5-chloro-3-(((trans)-4-(dimethylamino)cyclohexyl) (ethyl)amino)-N-((3-methoxy-1-methyl-5-(pyrrolidin-1-yl)-1H-pyrazol-4-yl)methyl)-2-methylbenzamide] |  | 
3 | 0.253 | 0.335 | CCN(c1cc(Cl)cc(C(=O)NCc2c(C)n(C)n(C)c2=O)c1C)[C@H]1CC[C@H](N(C)C)CC1 [Compound 87, 5-chloro-3-(ethyl((trans)-4-(dimethylamino)cyclohexyl)amino)-2-methyl-N-((1,2,5-trimethyl-3-oxo-2,3-dihydro-1H-pyrazol-4-yl)methyl)benzamide] |  | 
4 | 46.4 | > 50 | CCN(c1cc(Cl)cc(C(=O)NCc2c(C(F)(F)F)nn(C)c2OC)c1C)[C@H]1CC[C@H](N(C)C)CC1 [Compound 88, 5-chloro-3-(ethyl((trans)-4-(dimethylamino)cyclohexyl)amino)-N-((5-methoxy-1-methyl-3-(trifluoromethyl)-1H-pyrazol-4-yl)methyl)-2-methylbenzamide] |  | 
5 | > 50 | > 50 | CCN(c1cc(Cl)cc(C(=O)NCc2c(C(F)(F)F)[nH]n(C)c2=O)c1C)[C@H]1CC[C@H](N(C)C)CC1 [Compound 89, 5-chloro-3-(ethyl((trans)-4-(dimethylamino)cyclohexyl)amino)-2-methyl-N-((2-methyl-3-oxo-5-(trifluoromethyl)-2,3-dihydro-1H-pyrazol-4-yl)methyl)benzamide] |  | 
6 | 0.502 | 1.91 | CCN(c1cc(Cl)cc(C(=O)NCc2c(C(F)(F)F)n(C)n(C)c2=O)c1C)[C@H]1CC[C@H](N(C)C)CC1 [Compound 90, 5-chloro-N-((1,2-dimethyl-3-oxo-5-(trifluoromethyl)-2,3-dihydro-1H-pyrazol-4-yl)methyl)-3-(ethyl((trans)-4-(dimethylamino)cyclohexyl)amino)-2-methylbenzamide] |  | 
7 | > 50 | > 50 | CCN(c1cc(Cl)cc(C(=O)NCc2c(OC)nn(C)c2N2CCCCC2)c1C)[C@H]1CC[C@H](N(C)C)CC1 [Compound 92, 5-chloro-3-(ethyl[(trans)-4-(dimethylamino)cyclohexyl]amino)-N-([3-methoxy-1-methyl-5-(piperidin-1-yl)-1H-pyrazol-4-yl]methyl)-2-methylbenzamide] |  | 
8 | > 50 | > 50 | CCN(c1cc(Cl)cc(C(=O)NCc2c(N3CCCCC3)nn(C)c2OC)c1C)[C@H]1CC[C@H](N(C)C)CC1 [Compound 94, 5-chloro-3-(((trans)-4-(dimethylamino)cyclohexyl)(ethyl)amino)-N-((5-methoxy-1-methyl-3-(piperidin-1-yl)-1H-pyrazol-4-yl)methyl)-2-methylbenzamide] |  | 
9 | 17.7 | > 50 | CCN(c1cc(Cl)cc(C(=O)NCc2c(OC)nn(C)c2OC)c1C)[C@H]1CC[C@H](N(C)C)CC1 [Compound 95, 5-chloro-N-((3,5-dimethoxy-1-methyl-1H-pyrazol-4-yl)methyl)-3-(((trans)-4-(dimethylamino)cyclohexyl)(ethyl)amino)-2-methylbenzamide] |  | 

More lines, now with the values behind:

Row | Compound | IC50 [2] [µM] | IC50 [3] [µM] | IC50 ([1]; 96 hours incubation) [µM] | IC50 [1, 4] [µM]
10 | 5-chloro-3-(ethyl((trans)-4-((4-methoxybenzyl)(methyl)amino) cyclohexyl)amino)-2-methyl-N-((1-methyl-3-oxo-5-(piperidin-1-yl)-2,3-dihydro-1H-pyrazol-4-yl)methyl)benzamide [Compound 84] | 1.22 | 1.44 | 16.7 | 
11 | CCN(c1cc(Cl)cc(C(=O)NCc2c(C)[nH]n(C)c2=O)c1C)[C@@H]1COC[C@H]1O (relative stereo) [Compound 41, 5-chloro-N-((2,5-dimethyl-3-oxo-2,3-dihydro-1H-pyrazol-4-yl)methyl)-3-(ethyl((trans)-4-hydroxytetrahydrofuran-3-yl)amino)-2-methylbenzamide] | 26.2 | 37.2 |  | > 50
12 | CCN(c1cc(-c2ccc(OCCOC)cc2)cc(C(=O)NCc2c(C)[nH][nH]c2=O)c1C)[C@H]1CC[C@H](N(C)C)CC1 [Compound 30, 5-(((trans)-4-(dimethylamino)cyclohexyl)(ethyl)amino)-4′-(2-methoxyethoxy)-4-methyl-N-((5-methyl-3-oxo-2,3-dihydro-1H-pyrazol-4-yl)methyl)-[1,1′-biphenyl]-3-carboxamide] | 0.007 | 0.024 |  | 29
13 | CCN(c1cc(-c2ccc(CN3CCOCC3)cc2)cc(C(=O)NCc2c(C)[nH]n(C)c2=O)c1C)C1CCOCC1 [Compound 46, N-((2,5-dimethyl-3-oxo-2,3-dihydro-1H-pyrazol-4-yl)methyl)-5-(ethyl(tetrahydro-2H-pyran-4-yl)amino)-4-methyl-4′-(morpholinomethyl)-[1,1′-biphenyl]-3-carboxamide] |  |  |  | > 50
14 | CCN(c1cc(-c2ccc(N3CCNCC3)nc2)cc(C(=O)NCc2c(C)[nH]n(C)c2=O)c1C)C1CCOCC1 [Compound 47, N-((2,5-dimethyl-3-oxo-2,3-dihydro-1H-pyrazol-4-yl)methyl)-3-(ethyl(tetrahydro-2H-pyran-4-yl)amino)-2-methyl-5-(6-(piperazin-1-yl)pyridin-3-yl)benzamide] |  |  |  | > 50
15 | CCn1nc(OC)c(CNC(=O)c2cc(Cl)cc(N(CC)[C@H]3CC[C@H](N(C)Cc4cccc(OC)c4)CC3)c2C)c1C [Compound 62, 5-chloro-3-(ethyl((trans)-4-((3-methoxybenzyl)-(methyl)-amino)-cyclohexyl)-amino)-N-((1-ethyl-3-methoxy-5-methyl-1H-pyrazol-4-yl)methyl)-2-methylbenzamide] | 0.193 | 0.745 |  | > 50
16 | CCn1[nH]c(=O)c(CNC(=O)c2cc(Cl)cc(N(CC)[C@H]3CC[C@H](N(C)Cc4ccc(OC)cc4)CC3)c2C)c1C [Compound 71, 5-chloro-3-(ethyl((trans)-4-((4-methoxybenzyl)-(methyl)-amino)-cyclohexyl)-amino)-N-((1-ethyl-5-methyl-3-oxo-2,3-dihydro-1H-pyrazol-4-yl)methyl)-2-methylbenzamide] | 0.504 | 1.92 |  | 
17 | CCN(c1cc(Cl)cc(C(=O)NCc2c(OC)nn(C)c2C)c1C)[C@H]1CC[C@H](N(C)C(C)c2cccnc2)CC1 (stereo partly drawn) [Compound 72, 5-chloro-3-(ethyl((trans)-4-(methyl(1-(pyridin-3-yl)ethyl)amino)cyclohexyl)amino)-N-((3-methoxy-1,5-dimethyl-1H-pyrazol-4-yl)methyl)-2-methylbenzamide] | 5.67 | > 50 |  | 
18 | CCN(c1cc(Cl)cc(C(=O)NCc2c(C)n(C)[nH]c2=O)c1C)[C@H]1CC[C@H](N(C)C(C)c2cccnc2)CC1 (stereo partly drawn) [Compound 73, 5-chloro-N-((1,5-dimethyl-3-oxo-2,3-dihydro-1H-pyrazol-4-yl)methyl)-3-(ethyl((trans)-4-(methyl(1-(pyridin-3-yl)ethyl)amino)cyclohexyl)amino)-2-methylbenzamide] | 0.149 | 1.29 |  | 
19 | CCN(c1cc(Cl)cc(C(=O)NCc2c(OC)nn(CC)c2C)c1C)C1CCN(CCOC)CC1 [Compound 74] | 7.25 | 12.6 |  | 
20 | CCN(c1cc(Cl)cc(C(=O)NCc2c(OC)nn(C)c2C)c1C)C1CCN(CCOC)CC1 [Compound 76, 5-chloro-3-(ethyl(1-(2-methoxyethyl)piperidin-4-yl)amino)-N-((3-methoxy-1,5-dimethyl-1H-pyrazol-4-yl)methyl)-2-methylbenzamide] | > 50 | > 50 |  | 
21 | CCN(c1cc(Cl)cc(C(=O)NCc2c(C)n(C)[nH]c2=O)c1C)C1CCN(CCOC)CC1 [Compound 77, 5-chloro-N-((1,5-dimethyl-3-oxo-2,3-dihydro-1H-pyrazol-4-yl)methyl)-3-(ethyl(1-(2-methoxyethyl)piperidin-4-yl)amino)-2-methylbenzamide] | 4.69 | 12.6 |  | 
22 | CCN(c1cc(Cl)cc(C(=O)NCc2c(OC)nn(C)c2C)c1C)C1CCN(CCc2cccc(OC)c2)CC1 [Compound 78, 5-chloro-3-(ethyl(1-(3-methoxyphenethyl)piperidin-4-yl)amino)-N-((3-methoxy-1,5-dimethyl-1H-pyrazol-4-yl)methyl)-2-methylbenzamide] | 4.26 | 17.6 |  | 
23 | CCN(c1cc(Cl)cc(C(=O)NCc2c(C)n(C)[nH]c2=O)c1C)C1CCN(CCc2cccc(OC)c2)CC1 [Compound 79, 5-chloro-N-((1,5-dimethyl-3-oxo-2,3-dihydro-1H-pyrazol-4-yl)methyl)-3-(ethyl(1-(3-methoxyphenethyl)piperidin-4-yl)amino)-2-methylbenzamide] | 0.1 | 0.485 |  | 
24 | CCN(c1cc(Cl)cc(C(=O)NCc2c(OC)nn(C)c2N2CCOCC2)c1C)[C@H]1CC[C@H](N(C)C)CC1 [Compound 82, 5-chloro-3-(((trans)-4-(dimethylamino)cyclohexyl) (ethyl)amino)-N-((3-methoxy-1-methyl-5-morpholino-1H-pyrazol-4-yl)methyl)-2-methylbenzamide] | 27 | 22.9 |  | 
25 | CCN(c1cc(Cl)cc(C(=O)NCc2c(OC)nn(C)c2N2CCCCC2)c1C)[C@H]1CC[C@H](N(C)Cc2cccc(OC)c2)CC1 [Compound 83, 5-chloro-3-(ethyl((trans)-4-((3-methoxybenzyl)(methyl)amino)cyclohexyl)amino)-N-((3-methoxy-1-methyl-5-(piperidin-1-yl)-1H-pyrazol-4-yl)methyl)-2-methylbenzamide] | 18.3 | 45.8 |  | 
